Results taken from US8609592B2, “2-(substituted phenyl)-6-amino-5-alkoxy, thioalkoxy and aminoalkyl-4-pyrimidinecarboxylates and their use as herbicides” (Dow AgroSciences LLC, priority 2007, dated 2013).

Experiments:
[1] = tested on: Velvetleaf (Abutilon theophrasti); experiment: General postemergence herbicidal activity, greenhouse; assay type: in vivo; details: post-emergence, 336 h, post-emergent, visual score after 14 days (0 no injury, 100 complete kill), read-out: % Growth Reduction ABUTH; for pest or weed control at 140 g/ha: 140 g ai/ha; for pest or weed control at 280 g/ha: 280 g ai/ha
Procedure: (§1) Seeds or nutlets of the desired test plant species were planted in Sun Gro MetroMix® 360 planting mixture, which typically has a pH of 6.0 to 6.8 and an organic matter content of about 30 percent, in plastic pots with a surface area of 64 square centimeters. When required to ensure good germination and healthy plants, a fungicide treatment and/or other chemical or physical treatment was applied. The plants were grown for 7-21 days in a greenhouse with an approximate 15 hour photoperiod which was maintained at about 23-29° C. during the day and 22-28° C. during the night. Nutrients and water were added on a regular basis and supplemental lighting was provided with overhead metal halide 1000-Watt lamps as necessary. The plants were employed for testing when they reached the first or second true leaf stage.
(§2) A weighed amount, determined by the highest rate to be tested, of each test compound was dissolved in 4 mL of a 97:3 v/v (volume/volume) mixture of acetone and dimethyl sulfoxide (DMSO) to obtain concentrated stock solutions. […] The concentrated stock solutions obtained were diluted with 20 mL of an aqueous mixture containing acetone, water, isopropyl alcohol, DMSO, Atplus 411F crop oil concentrate, and Triton X-155 surfactant in a 48.5:39:10:1.5:1.0:0.02 v/v ratio to obtain spray solutions containing the highest application rates. Additional application rates were obtained by serial dilution of 12 mL of the high rate solution into a solution containing 2 mL of 97:3 v/v (volume/volume) mixture of acetone and dimethyl sulfoxide (DMSO) and 10 mL of an aqueous mixture containing acetone, water, isopropyl alcohol, DMSO, Atplus 411F crop oil concentrate, and Triton X-155 surfactant in a 48.5:39:10:1.5:1.0:0.02 v/v ratio to obtain ½×, ¼×, ⅛× and 1/16× rates of the high rate. Compound requirements are based upon a 12 mL application volume at a rate of 187 L/ha. Formulated compounds were applied to the plant material with an overhead Mandel track sprayer equipped with a 8002E nozzles calibrated to deliver 187 L/ha over an application area of 0.503 square meters at a spray height of […] above the average plant canopy height. Control plants were sprayed in the same manner with the solvent blank.
(§3) The treated plants and control plants were placed in a greenhouse as described above and watered by sub-irrigation to prevent wash-off of the test compounds. After 14 days, the condition of the test plants as compared with that of the untreated plants was determined visually and scored on a scale of 0 to 100 percent where 0 corresponds to no injury and 100 corresponds to complete kill.

[2] = tested on: Barnyardgrass (Echinochloa crus-galli); experiment: as above; assay type: in vivo; details: post-emergence, 336 h, post-emergent, visual score after 14 days (0 no injury, 100 complete kill), read-out: % Growth Reduction ECHCG; for pest or weed control at 140 g/ha: 140 g ai/ha
Procedure: as §1, §2, §3

[3] = tested on: Wild buckwheat (Polygonum convolvulus); experiment: as above; assay type: in vivo; details: Fallopia convolvulus, post-emergence, 336 h, post-emergent, visual score after 14 days (0 no injury, 100 complete kill), read-out: % Growth Reduction POLCO; for pest or weed control at 140 g/ha: 140 g ai/ha; for pest or weed control at 280 g/ha: 280 g ai/ha
Procedure: as §1, §2, §3

[4] = tested on: Giant foxtail (Setaria faberi); experiment: as above; assay type: in vivo; details: post-emergence, 336 h, post-emergent, visual score after 14 days (0 no injury, 100 complete kill), read-out: % Growth Reduction SETFA; for pest or weed control at 140 g/ha: 140 g ai/ha; for pest or weed control at 280 g/ha: 280 g ai/ha
Procedure: as §1, §2, §3

Row | SMILES | pest or weed control at 140 g/ha [1] [%] | pest or weed control at 140 g/ha [2] [%] | pest or weed control at 140 g/ha [3] [%] | pest or weed control at 140 g/ha [4] [%] | further results
1 | COC(=O)c1nc(-c2ccc(Cl)c(OC)c2F)nc(N)c1OC [Compound 1, 6-amino-2-(4-chloro-2-fluoro-3-methoxyphenyl)-5-methoxypyrimidine-4-carboxylic acid methyl ester] | 100 | 100 | 100 | 95 | 
2 | CCOC(=O)c1nc(-c2ccc(Cl)cc2)nc(N)c1OC [Compound 2, 6-Amino-2-(4-chlorophenyl)-5-methoxypyrimidine-4-carboxylic acid ethyl ester] | 98 | 50 | 100 | 70 | 
3 | CCOC(=O)c1nc(-c2cc(C)c(Cl)cc2F)nc(N)c1OC [Compound 3, 6-Amino-2-(4-chloro-2-fluoro-5-methylphenyl)-5-methoxypyrimidine-4-carboxylic acid ethyl ester] |  |  |  |  | pest or weed control at 280 g/ha [1]: 60%; pest or weed control at 280 g/ha ([2]; 280 g ai/ha): 0%; pest or weed control at 280 g/ha [3]: 85%; pest or weed control at 280 g/ha [4]: 0%
4 | CCOC(=O)c1nc(-c2ccc(Cl)c(F)c2)nc(N)c1OC [Compound 9, 6-Amino-2-(4-chloro-3-fluorophenyl)-5-methoxypyrimidine-4-carboxylic acid ethyl ester] | 95 | 90 | 100 | 30 | 
5 | CCOC(=O)c1nc(-c2ccc(C)cc2F)nc(N)c1OC [Compound 10, 6-Amino-2-(2-fluoro-4-methylphenyl)-5-methoxypyrimidine-4-carboxylic acid ethyl ester] | 100 | 10 | 90 | 0 | 
6 | CCOC(=O)c1nc(-c2ccc(C(F)(F)F)cc2)nc(N)c1OC [Compound 11, 6-Amino-5-methoxy-2-(4-trifluoromethylphenyl)pyrimidine-4-carboxylic acid ethyl ester] | 90 | 85 | 85 | 0 | 
7 | CCOC(=O)c1nc(-c2ccc3c(c2)OCO3)nc(N)c1OC [Compound 12, 6-Amino-2-benzo[1,3]-dioxol-5-yl-5-methoxypyrimidine-4-carboxylic acid ethyl ester] | 50 | 85 | 80 | 90 | 
8 | CCOC(=O)c1nc(-c2ccc(Cl)cc2F)nc(N)c1OC [Compound 13, 6-Amino-2-(4-chloro-2-fluorophenyl)-5-methoxypyrimidine-4-carboxylic acid ethyl ester] | 100 | 0 | 100 | 35 | 
9 | CCOC(=O)c1nc(-c2ccc(Cl)c(C(C)F)c2F)nc(N)c1OC (stereo not shown) [Compound 14, 6-Amino-2-[4-chloro-2-fluoro-3-(1-fluoroethyl)phenyl]-5-methoxypyrimidine-4-carboxylic acid ethyl ester] | 100 | 100 | 100 | 100 | 
10 | CCOC(=O)c1nc(-c2cc(OC)c(Cl)cc2F)nc(N)c1OC [Compound 16, 6-Amino-2-(4-chloro-2-fluoro-5-methoxyphenyl)-5-methoxypyrimidine-4-carboxylic acid ethyl ester] | 60 | 0 | 100 | 10 | 
11 | CCOc1c(N)nc(-c2ccc(Cl)c(OC)c2F)nc1C(=O)O [Compound 18, 6-Amino-2-(4-chloro-2-fluoro-3-methoxyphenyl)-5-ethoxy-pyrimidine-4-carboxylic acid] |  |  |  |  | pest or weed control at 280 g/ha [1]: 70%; pest or weed control at 280 g/ha [3]: 100%; pest or weed control at 280 g/ha [4]: 70%
12 | COC(=O)c1nc(-c2ccc(Cl)c(OC)c2F)nc(N)c1SC [Compound 19, 6-Amino-2-(4-chloro-2-fluoro-3-methoxyphenyl)-5-methylsulfanylpyrimidine-4-carboxylic acid methyl ester] |  |  |  |  | pest or weed control at 195 g/ha ([1]; 195 g ai/ha): 90%; pest or weed control at 195 g/ha ([2]; 195 g ai/ha): 90%; pest or weed control at 195 g/ha ([3]; 195 g ai/ha): 100%; pest or weed control at 195 g/ha ([4]; 195 g ai/ha): 85%
13 | COc1c(Cl)ccc(-c2nc(N)c(SC)c(C(=O)O)n2)c1F [Compound 21, 6-Amino-2-(4-chloro-2-fluoro-3-methoxyphenyl)-5-methylsulfanyl-pyrimidine-4-carboxylic acid] | 85 | 100 | 100 | 60 | 
14 | COc1c(N)nc(-c2ccc(Cl)c(OC)c2F)nc1C(=O)O [Compound 22, 6-Amino-2-(4-chloro-2-fluoro-3-methoxyphenyl)-5-methoxypyrimidine-4-carboxylic acid] | 100 | 100 | 100 | 100 | 
15 | COc1c(N)nc(-c2ccc(C)cc2F)nc1C(=O)O [Compound 28, 6-Amino-2-(2-fluoro-4-methylphenyl)-5-methoxypyrimidine-4-carboxylic acid] |  |  |  |  | melting point: 94 to 97 °C
16 | COc1c(N)nc(-c2ccc(Cl)cc2F)nc1C(=O)O [Compound 31, 6-Amino-2-(4-chloro-2-fluorophenyl)-5-methoxypyrimidine-4-carboxylic acid] | 100 | 85 | 100 | 70 | 
17 | COc1c(N)nc(-c2ccc(C)cc2)nc1C(=O)O [Compound 32, 6-Amino-5-methoxy-2-p-tolylpyrimidine-4-carboxylic acid] | 80 | 95 | 100 | 65 | 
